Data set [1] in a line: in vivo. Also on record: species or system male rats. The note with it: rat, po. The protocol:
The test compound suspended in 0.5% methylcellulose was orally administered to male rats at a dose of 100 or 32 mg/kg/day for 2 weeks.

In data set [2] the test system is H. pylori FP 1757. The data set is described as follows: In vitro anti-microbial activity against Helicobacter pylori (two-fold agar plate dilution method). The class given is cell-based. The note with it: FP1757, 72 h, test strain H. pylori FP 1757, Brucella agar with 7% horse blood, 37° C., 3 days, 10% CO2.
The test system of data set [3] is H. pylori FP 1757. Put plainly: Therapeutic effects in mouse model (H. pylori infection, eradication). Particulars: 0.32 mg/kg/time, oral, twice per day for 4 days; mice sacrificed 2 weeks after final administration. The class given is in vivo, male ICR mice. The method, then:
1.5 ml of approx. 10^8 cfu/ml of H. pylori FP 1757 was orally infected into 4 weeks old male ICR mice (Nippon SLC, Hamamatsu, Japan) which had been fasted overnight. […] The test compound was suspended in 0.5% methylcellulose and administered to the mice. The mice were sacrificed at 2 weeks after the final administration and the gastric mucosa was scraped and homogenized in 1 ml of 0.1 M phosphate buffered saline. 0.1 ml aliquots were inoculated onto Brucella agar plate containing 3% horse serum, 2% starch and antibiotics. All plates were incubated at 37° C. under 10% CO2 for 4 or 5 days. Colonies grown on the plate were counted, and the therapeutic effect was evaluated.

Each structure is given as a SMILES string.

Among the data in US6150351A, “Cephem compounds and pharmaceutical use thereof” (Fujisawa Pharmaceutical Co., Ltd., priority 1996, dated 2000) are NOAEL, MIC and eradication values, retold here.

As for `NC(=O)Cc1csc(SC2=C(C(=O)O)N3C(=O)[C@@H](NC(=O)Cc4ccccc4)[C@H]3SC2)n1` [Example 14, 7β-(2-Phenylacetamido)-3-(4-carbamoylmethylthiazol-2-yl)thio-3-cephem-4-carboxylic acid], the NOAEL – broadly, the highest tested level that showed no adverse finding – at 336 h in data set [1] was 100 mg/kg/day.
As for `NCc1nnc(SC2=C(C(=O)O)N3C(=O)[C@@H](NC(=O)Cc4ccccc4)[C@H]3SC2)s1.O=C(O)C(F)(F)F` [Example 24, 7β-(2-phenylacetamido)-3-(5-aminomethyl-1,3,4-thiadiazol-2-yl)thio-3-cephem-4-carboxylic acid trifluoroacetic acid salt], the MIC – broadly, the smallest concentration in the dilution series that meets the test's criterion for growth inhibition – in data set [2] is less than 0.02 µg/mL.
The compound `O=C(O)Cc1csc(SC2=C(C(=O)O)N3C(=O)[C@@H](NC(=O)Cc4cccs4)[C@H]3SC2)n1` [Example 72, 7β-[2-(2-Thienyl)acetamido]-3-(4-carboxymethylthiazol-2-yl)thio-3-cephem-4-carboxylic acid] yielded an eradication in data set [3] greater than 80%.
